Experimental data as given in patent US4997834A, “Trans-4-amino(alkyl)-1-pyridylcarbamoylcyclohexane compounds and pharmaceutical use thereof” (priority 1988, dated 1991).

How the values were obtained:
right vertebral artery = experiment: Effect on vertebral blood flow (perfused right vertebral artery, anesthetized dogs); format: in vivo, adult mongrel dogs; settings: doses 10-100 μg (A); for Effect of vertebral blood flow, ED100: dose giving 100% of the maximum blood flow increase by 100 μg papaverine hydrochloride, 30-100 μg (B, C) into vertebral artery; for Effect of vertebral blood flow, T1/2 (duration of the effects): injection into vertebral artery, 30-100 μg (B, C)
Experimental: PHARMACOLOGICAL EXPERIMENT 3: EFFECT ON VERTEBRAL BLOOD FLOW
Groups of two adult mongrel dogs were anesthetized with the intraveneous administration of 25 mg/kg of body weight of sodium pentobarbital.
The right vertebral artery was perfused and the blood flow volume was measured. Test compound was injected in the vertebral artery. The percentage of maximum increase of blood flow by the injection of 100 μg of papaverine hydrochloride (1-[(3,4-dimethoxyphenyl)methyl]-6,7-dimethoxyisoquinoline hydrochloride) in vertebral artery was taken as 100% . The effects of test compound on vertebral artery were expressed as ED100 (μg), a dose required to obtain 100% of the increase of blood flow. Each of half-life (T 1/2, minute) was measured as the duration of the effects.

[1] = system: spontaneously hypertensive rats; experiment: Antihypertensive effect: systolic blood pressure by tail cuff method in spontaneously hypertensive rats; format: in vivo, male spontaneously hypertensive rats; settings: 30 mg/kg orally, measured three hours after administration
Experimental: PHARMACOLOGICAL EXPERIMENT 1: ANTIHYPERTENSIVE EFFECT
Each of 30 mg/kg of test compounds dissolving in 0.5% of hydroxypropyl-methylcellurose was orally administered to groups of 3 to 5 male spontaneously hypertensive rats weighing 350-450 g. Three hours after the administration, the systolic blood pressure was measured by tail cuff method and antihypertensive effects are examined.

ddY strain mice = experiment: Acute toxicity, intraperitoneal, mice; format: in vivo
Excerpt: EXPERIMENT OF ACUTE TOXICITY
Each of test compounds of A, B and C was intraperitoneally administered to ddY strain mice.

left coronary artery = experiment: Effect on coronary blood flow (perfused left coronary artery, anesthetized dogs); format: in vivo, adult mongrel dogs; settings: pentobarbital-anesthetized; for Effect of coronary blood flow, ED50 (in artery): dose increasing coronary blood flow by half of the effect of 3 μg intracoronary nifedipine, test dose 10-300 μg into coronary artery; for Effect of coronary blood flow, T1/2 (duration of effects): injection into coronary artery, 10-300 μg
Experimental: PHARMACOLOGICAL EXPERIMENT 2: EFFECT ON CORONARY BLOOD FLOW
Groups of 2 to 3 adult mongrel dogs were anesthetized with the intraveneous administration of 30 mg/kg of body weight of sodium pentobarbital.
According to the method of Yago et. al. described in Folia Pharmacologica Japonica, vol. 57, p.380 (1961), the left coronary artery was perfused and its blood flow volume was measured. Test compound was injected into the coronary artery at a […] of 10-300 μg. The effects of test compound on coronary blood flow were expressed as ED50 (μg), a dose required to increase the coronary blood flow by a half of the effects of the coronary-artery injection of 3 μg of nifedipine [Dimethyl 2,6-dimethyl-4-(2-nitrophenyl)-1,4-dihydropyridine-3,5-dicarboxylate]. Each of half-life (T 1/2, minute) was measured as the duration of effects.

[2] = intraperitoneal dose of 100 mg/kg, five days after administration

For `CC(N)[C@H]1CC[C@H](C(=O)Nc2ccncc2)CC1` (relative stereo) [Test Compound C, Trans-4-(1-aminoethyl)-1-(4-pyridylcarbamoyl)cyclohexane], the “Effect of vertebral blood flow, ED100” value (right vertebral artery) was 58 µg, the “Effect of vertebral blood flow, T1/2 (duration of the effects)” value (shortened to “Effect … (duration of the effects)”) (right vertebral artery) was 3.0 min and the “Maximum lowering value of systolic blood pressure” value [1] was -52 mmHg. The Survival of mice (ddY strain mice; mouse, in vivo, ip, 100 mg/kg) was “All mice survived”, the “Effect of coronary blood flow, ED50 (in artery)” value (“Effect … (in artery)” below) (left coronary artery) was 34 µg and the “Effect of coronary blood flow, T1/2 (duration of effects)” value (from here on “Effect … (duration of effects)”) (left coronary artery) was 3.0 min.
`C[C@H]1C[C@H](CN)CC[C@H]1C(=O)Nc1ccncc1` (relative stereo) [Test Compound B, Trans-4-aminomethyl-cis-2-methyl-1-(4-pyridylcarbamoyl)cyclohexane] was tested, and the “Effect of vertebral blood flow, ED100” value (right vertebral artery) was 74 µg, the “Effect … (duration of the effects)” value (right vertebral artery) was 4.4 min and the “Maximum lowering value of systolic blood pressure” value [1] was -44 mmHg. For the same compound, the Survival of mice (ddY strain mice; [2]) was “All mice survived”, the “Effect … (in artery)” value (left coronary artery) was 35 µg and the “Effect … (duration of effects)” value (left coronary artery) was 4.0 min.
In the case of `NC[C@H]1CC[C@H](C(=O)Nc2ccncc2)CC1` [Test Compound A, Trans-4-aminomethyl-1-(4-pyridylcarbamoyl)cyclohexane], the “Effect of vertebral blood flow, ED100” value (right vertebral artery) is reported as 35 µg, the “Effect … (duration of the effects)” value (right vertebral artery) is reported as 2.1 min and the Survival of mice (ddY strain mice; [2]) is reported as “All mice survived”. For the same compound, the “Effect … (in artery)” value (left coronary artery) was 56 µg and the “Effect … (duration of effects)” value (left coronary artery) was 1.7 min.
